Columns and labels:
Format in all cases: functional
Rattus norvegicus [1] = test: Antinidatory effect was measured in the rat, relative to that of prostaglandin F2-alpha (ED50 = 1.3 (0.9-1.87)mg/kg)
Rattus norvegicus [2] = test: Antinidatory effect was measured in the rat, relative to that of prostaglandin F2-alpha (ED50 = 1.3 (0.9-1.87) mg/kg); Range 4-8
Rattus norvegicus [3] = test: Antinidatory effect was measured in the rat, relative to that of prostaglandin F2alpha (ED50 = 1.3 (0.9-1.87) mg/kg); Range 200-400
Rattus norvegicus [4] = test: Antinidatory effect was measured in the rat, relative to that of prostaglandin F2-alpha (ED50 = 1.3 (0.9-1.87) mg/kg); Range 2-4

Row | Structure (SMILES) | Relative activity (Rattus norvegicus [1]) | other results
1 | COC(=O)/C=C/C/C=C\C[C@@H]1[C@@H](/C=C/[C@@H](O)COc2cccc(C(F)(F)F)c2)[C@H](O)C[C@@H]1O | 100 | –
2 | COC(=O)/C=C/C=C/CC[C@@H]1C(/C=C/[C@@H](O)COc2cccc(Cl)c2)[C@H](O)C[C@@H]1O (some centres not stated) | – | Relative activity (Rattus norvegicus [2]): 4
3 | COC(=O)C/C=C/C=C\C[C@@H]1[C@@H](/C=C/[C@@H](O)COc2cccc(Cl)c2)[C@H](O)C[C@@H]1O | 800 | –
4 | COC(=O)C/C=C/C=C/C[C@@H]1[C@@H](/C=C/[C@@H](O)COc2ccccc2)[C@H](O)C[C@@H]1O | 200 | –
5 | COC(=O)/C=C/C/C=C\C[C@@H]1[C@@H](/C=C/[C@@H](O)COc2ccccc2)[C@H](O)C[C@@H]1O | – | Relative activity (Rattus norvegicus [3]): 200
6 | COC(=O)/C=C/C=C/CC[C@@H]1C(/C=C/[C@@H](O)COc2ccccc2)[C@H](O)C[C@@H]1O (some centres not stated) | 20 | –
7 | COC(=O)/C=C/C/C=C/C[C@@H]1[C@@H](/C=C/[C@@H](O)COc2cccc(Cl)c2)[C@H](O)C[C@@H]1O | 100 | –
8 | COC(=O)C/C=C/C=C\C[C@@H]1[C@@H](/C=C/[C@@H](O)COc2ccc(Cl)cc2)[C@H](O)C[C@@H]1O | – | Relative activity (Rattus norvegicus [3]): 200
9 | O=C(O)/C=C/C/C=C\C[C@@H]1[C@@H](/C=C/[C@@H](O)COc2cccc(Cl)c2)[C@H](O)C[C@@H]1O | 200 | –
10 | COC(=O)CC=C/C=C\C[C@@H]1[C@@H](/C=C/[C@@H](O)COc2ccccc2)[C@H](O)C[C@@H]1O | 1200 | –
11 | COC(=O)CC=C/C=C\C[C@@H]1[C@@H](/C=C/[C@@H](O)COc2cccc(Cl)c2)[C@H](O)C[C@@H]1O | 600 | –
12 | COC(=O)C/C=C/CCC[C@@H]1[C@@H](/C=C/[C@@H](O)COc2ccccc2)[C@H](O)C[C@@H]1O | 40 | –
13 | O=C(O)/C=C/CCCC[C@@H]1[C@@H](/C=C/[C@@H](O)COc2cccc(C(F)(F)F)c2)[C@H](O)C[C@@H]1O | 4 | –
14 | COC(=O)C/C=C/C=C/C[C@@H]1[C@@H](/C=C/[C@@H](O)COc2cccc(Cl)c2)[C@H](O)C[C@@H]1O | 100 | –
15 | COC(=O)CCC/C=C\C[C@@H]1[C@@H](/C=C/[C@@H](O)COc2ccccc2)[C@H](O)C[C@@H]1O | – | Relative activity (Rattus norvegicus [3]): 200
16 | COC(=O)C/C=C/C=C\C[C@@H]1[C@@H](/C=C/[C@@H](O)COc2cccc(C(F)(F)F)c2)[C@H](O)C[C@@H]1O | 100 | –
17 | COC(=O)C(CC/C=C\C[C@@H]1[C@@H](/C=C/[C@@H](O)COc2cccc(Cl)c2)[C@H](OC2CCCCO2)C[C@@H]1OC1CCCCO1)[Se]c1ccccc1 (some centres not stated) | 1 | –
18 | COC(=O)CCC/C=C\C[C@@H]1[C@@H](/C=C/[C@@H](O)COc2cccc(C(F)(F)F)c2)[C@H](O)C[C@@H]1O | 100 | –
19 | O=C(O)/C=C\CCCC[C@@H]1[C@@H](/C=C/[C@@H](O)COc2cccc(C(F)(F)F)c2)[C@H](O)C[C@@H]1O | – | Relative activity (Rattus norvegicus [4]): 2
20 | COC(=O)C/C=C/C=C\C[C@@H]1[C@@H](/C=C/[C@@H](O)COc2ccccc2)[C@H](O)C[C@@H]1O | 800 | –
21 | COC(=O)CCC/C=C\C[C@@H]1[C@@H](/C=C/[C@@H](O)COc2cccc(Cl)c2)[C@H](O)C[C@@H]1O | 200 | –
22 | COC(=O)/C=C/C/C=C\C[C@@H]1[C@@H](/C=C/[C@@H](O)COc2ccc(Cl)cc2)[C@H](O)C[C@@H]1O | 100 | –

Reference: ChEMBL document CHEMBL1121435, “Prostaglandin analogues possessing antinidatory effects. 2. Modification of the alpha chain” (1980)
